Converted amounts (≈) assume the structure as drawn.
Tests used:
[1] = tested on: ConA-stimulated mouse T-splenocytes; assay: In vitro cytotoxicity, [3H]thymidine incorporation, ConA-stimulated mouse T-splenocytes; type: cell-based; conditions: Splenocyte, 50% decrease in proliferation
Experimental: (§1) In vitro cytotoxicity tests were performed by a standard method on ConA-stimulated and nonstimulated mouse T-splenocytes and on a tumour line of mouse T-cell lymphom EL-4. Cytotoxicity was followed by a change of incorporation of [^3H]thymidine into cells incubated in a medium containing the tested sample in various concentrations. The cytotoxicity was expressed by the IC50 factor (the substance concentration at which a 50% decrease in proliferation of tested cells is observed).

[2] = tested on: mouse T-cell lymphom EL-4; assay: In vitro cytotoxicity, [3H]thymidine incorporation, EL-4 tumour line; type: cell-based; conditions: mouse T-cell lymphoma EL-4 line, 50% decrease in proliferation
Experimental: as §1

[3] = clinical testing; cumulative dose reached 1680 mg/m^2; cited from earlier work
human melanoma = assay: Treatment of human melanoma in nu-nu mice; type: in vivo; conditions: compared with the conjugate from ONp or Su reactive polymer, FIG. 3
Source text: The properties of the conjugate were compared with those of the conjugate prepared from the classic ONp reactive polymer. […] The synthesis using the reactive polymer according to the invention proceeded faster, a polymer with a smaller content of reactive groups (2 mol %) could be used for obtaining the same product, and in the resulting conjugate no unmodified protein or unreacted polymer was present (the conversion of the reaction of reactive groups was higher).
A star-like poly(HMPA)—RNase A conjugate was prepared from a semitelechelic polymer prepared according to Example 3 by the same procedure as in the synthesis starting from poly(HPMA) with succinimidyl end group. The star conjugate was purified from low-molecular-weight materials by preparative gel chromatography (Sephacryl S300, column 26×600 mm, flow-rate 12.5 ml/h, distilled water). After concentration using an ultrafiltration membrane (PM 30), the product was lyophilized. Comparing the conjugate syntheses using polymers with OSu and TT reactive groups, the latter led to higher reaction yields and much smaller amounts of unreacted (hydrolyzed) polymer in the reaction mixture.

## COc1cccc2c1C(=O)c1c(O)c3c(c(O)c1C2=O)C[C@@](O)(C(=O)CO)C[C@@H]3O[C@H]1C[C@H](N)[C@H](O)[C@H](C)O1 [Dox, doxorubicin]
[1]
  IC50: 0.07 µg/mL (≈ 0.129 µM)
[2]
  IC50: 0.03 µg/mL (≈ 0.0552 µM)

## N-(2-hydroxypropyl)methacrylamide copolymer doxorubicin [PK1]
[3]
  changes in cardial functions: no serious changes in cardial functions were observed

B1: star-like poly(HMPA)—RNase A conjugate (conjugate, UniProt P61823 27-150, looked up)
Ribonuclease pancreatic: KETAAAKFERQHMDSSTSAASSSNYCNQMMKSRNLTKDRCKPVNTFVHESLADVQAVCSQKNVACKNGQTNCYQSYSTMSITDCRETGSSKYPNCAYKTTQANKHIIVACEGNPYVPVHFDASV
modifications: star-like poly(HPMA) polymer conjugate
Human melanoma
  biological properties / in vivo activity in the treatment of human melanoma: active under in vivo conditions equally well as the conjugate prepared from reactive Su ester

— patent US20060275250A1, “Reactive polymers and copolymers, method of their preparation and their use” (priority 2003, published 2006)
